From ChEMBL document CHEMBL1201862, “PubChem BioAssay data set” (2004)
Active and inactive are the calls of the source.

What was measured:
Streptokinase A = molecular target: T1, Streptokinase A (Streptococcus pyogenes serotype M1, UniProt P10520); assay: viability-normalized secreted streptokinase activity reduction – plasminogen activation absorbance, OD405, dose response (AID 1914); type: functional, Streptococcus pyogenes M1 GAS;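 further: secreted streptokinase activity via plasminogen activation per viability signal from cell pellet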
T1 sequence (P10520 whole entry): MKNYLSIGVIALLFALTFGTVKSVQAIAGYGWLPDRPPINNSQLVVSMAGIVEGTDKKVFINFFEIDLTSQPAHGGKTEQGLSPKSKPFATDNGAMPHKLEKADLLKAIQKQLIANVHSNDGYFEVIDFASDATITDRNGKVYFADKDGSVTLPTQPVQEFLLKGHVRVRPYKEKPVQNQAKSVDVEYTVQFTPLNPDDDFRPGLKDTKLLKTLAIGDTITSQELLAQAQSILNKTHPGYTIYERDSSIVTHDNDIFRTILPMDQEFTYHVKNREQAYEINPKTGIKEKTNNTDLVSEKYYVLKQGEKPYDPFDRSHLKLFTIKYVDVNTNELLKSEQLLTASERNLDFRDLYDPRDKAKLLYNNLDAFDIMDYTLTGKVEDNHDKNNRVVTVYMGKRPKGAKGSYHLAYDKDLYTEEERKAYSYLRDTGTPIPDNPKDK

[1] = molecular target: T2, Sentrin-specific protease 6 (Homo sapiens, UniProt Q9GZR1); type: functional;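 further: Luminescence-based dose-response confirmatory assay of SENP6 inhibition, following up an ultra-high-throughput screen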
T2 sequence (Q9GZR1 whole entry): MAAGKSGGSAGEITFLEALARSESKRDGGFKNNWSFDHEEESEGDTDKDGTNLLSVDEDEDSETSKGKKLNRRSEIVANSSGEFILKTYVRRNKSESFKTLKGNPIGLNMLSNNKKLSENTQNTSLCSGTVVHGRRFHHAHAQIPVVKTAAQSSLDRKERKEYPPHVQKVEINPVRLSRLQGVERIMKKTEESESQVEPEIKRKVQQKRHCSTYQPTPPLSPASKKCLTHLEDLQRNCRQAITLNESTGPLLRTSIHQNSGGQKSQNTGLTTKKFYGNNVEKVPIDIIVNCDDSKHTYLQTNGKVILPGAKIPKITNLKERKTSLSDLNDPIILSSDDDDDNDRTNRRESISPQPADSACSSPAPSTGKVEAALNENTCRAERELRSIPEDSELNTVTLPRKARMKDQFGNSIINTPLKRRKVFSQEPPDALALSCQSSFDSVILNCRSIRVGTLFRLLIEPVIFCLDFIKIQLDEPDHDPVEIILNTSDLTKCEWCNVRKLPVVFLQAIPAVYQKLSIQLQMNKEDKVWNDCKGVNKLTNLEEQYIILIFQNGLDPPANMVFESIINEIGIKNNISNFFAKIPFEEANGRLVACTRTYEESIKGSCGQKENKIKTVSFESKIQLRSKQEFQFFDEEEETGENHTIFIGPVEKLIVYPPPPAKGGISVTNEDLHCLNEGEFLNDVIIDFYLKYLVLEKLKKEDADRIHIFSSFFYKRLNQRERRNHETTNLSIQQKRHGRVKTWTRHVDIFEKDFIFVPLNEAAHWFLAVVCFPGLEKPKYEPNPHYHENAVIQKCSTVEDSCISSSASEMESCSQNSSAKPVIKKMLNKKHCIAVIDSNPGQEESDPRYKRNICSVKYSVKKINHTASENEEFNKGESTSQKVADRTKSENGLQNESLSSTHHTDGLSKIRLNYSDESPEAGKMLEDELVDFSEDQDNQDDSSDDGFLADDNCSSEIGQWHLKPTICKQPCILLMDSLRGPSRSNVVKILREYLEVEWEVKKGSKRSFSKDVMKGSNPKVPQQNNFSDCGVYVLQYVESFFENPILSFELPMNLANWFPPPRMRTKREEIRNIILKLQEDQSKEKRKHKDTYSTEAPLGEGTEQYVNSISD

Caspase-3 = molecular target: T3, Caspase-3 (Homo sapiens, UniProt P42574); type: functional;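 further: Dose-response selectivity test against caspase-3 for candidate inhibitors of sentrin-specific proteases (SENPs)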
T3 sequence (P42574 whole entry): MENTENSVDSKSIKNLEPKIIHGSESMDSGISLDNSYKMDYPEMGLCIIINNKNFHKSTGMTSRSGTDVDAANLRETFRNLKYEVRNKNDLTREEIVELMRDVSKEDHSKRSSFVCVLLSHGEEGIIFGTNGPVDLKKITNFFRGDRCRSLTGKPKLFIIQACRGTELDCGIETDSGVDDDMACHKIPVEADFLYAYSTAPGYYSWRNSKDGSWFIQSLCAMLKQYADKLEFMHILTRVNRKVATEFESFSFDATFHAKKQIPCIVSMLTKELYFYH

[2] = system: Streptococcus sp. 'group A'; assay: Streptococcus pyogenes SK(-)GAS viability under kanamycin – luminescence, BacTiterGlo, confirmation, counter-screen for streptokinase expression inhibitor project, dose response (AID 1900); type: functional, organism-based
[3] = microbe, parasite or virus in culture; type: functional; details: Mycobacterium tuberculosis
[4] = molecular target: Serine/threonine-protein kinase PAK 4 (Homo sapiens, UniProt O96013); type: functional;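 further: value obtained within a kinome profiling panel in which PAK4 was one of the panel members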
[5] = molecular target: 5'-AMP-activated protein kinase catalytic subunit alpha-1 (Homo sapiens, UniProt Q13131); type: functional
Chain of 5'-AMP-activated protein kinase catalytic subunit alpha-1 (Q13131 whole entry): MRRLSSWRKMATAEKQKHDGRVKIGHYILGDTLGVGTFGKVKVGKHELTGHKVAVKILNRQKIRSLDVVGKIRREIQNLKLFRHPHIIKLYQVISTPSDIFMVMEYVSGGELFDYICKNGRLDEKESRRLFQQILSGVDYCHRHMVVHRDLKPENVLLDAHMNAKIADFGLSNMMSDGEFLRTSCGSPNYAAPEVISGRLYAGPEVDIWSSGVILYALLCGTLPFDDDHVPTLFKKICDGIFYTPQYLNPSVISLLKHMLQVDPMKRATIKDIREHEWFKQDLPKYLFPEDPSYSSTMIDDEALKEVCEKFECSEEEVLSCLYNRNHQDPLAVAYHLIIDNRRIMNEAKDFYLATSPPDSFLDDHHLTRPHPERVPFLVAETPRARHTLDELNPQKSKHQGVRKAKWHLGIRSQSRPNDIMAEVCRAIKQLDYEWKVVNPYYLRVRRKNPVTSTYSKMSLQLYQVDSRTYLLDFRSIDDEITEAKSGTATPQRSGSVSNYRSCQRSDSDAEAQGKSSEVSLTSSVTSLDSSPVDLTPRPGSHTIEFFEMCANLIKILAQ

[6] = molecular target: Tyrosine-protein kinase Fyn (Homo sapiens, UniProt P06241); type: functional
[7] = molecular target: Tyrosine-protein kinase JAK2 (Homo sapiens, UniProt O60674); type: functional;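 further: JAK2 tested as one member of a kinase panel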
Chain of Tyrosine-protein kinase JAK2 (O60674 whole entry): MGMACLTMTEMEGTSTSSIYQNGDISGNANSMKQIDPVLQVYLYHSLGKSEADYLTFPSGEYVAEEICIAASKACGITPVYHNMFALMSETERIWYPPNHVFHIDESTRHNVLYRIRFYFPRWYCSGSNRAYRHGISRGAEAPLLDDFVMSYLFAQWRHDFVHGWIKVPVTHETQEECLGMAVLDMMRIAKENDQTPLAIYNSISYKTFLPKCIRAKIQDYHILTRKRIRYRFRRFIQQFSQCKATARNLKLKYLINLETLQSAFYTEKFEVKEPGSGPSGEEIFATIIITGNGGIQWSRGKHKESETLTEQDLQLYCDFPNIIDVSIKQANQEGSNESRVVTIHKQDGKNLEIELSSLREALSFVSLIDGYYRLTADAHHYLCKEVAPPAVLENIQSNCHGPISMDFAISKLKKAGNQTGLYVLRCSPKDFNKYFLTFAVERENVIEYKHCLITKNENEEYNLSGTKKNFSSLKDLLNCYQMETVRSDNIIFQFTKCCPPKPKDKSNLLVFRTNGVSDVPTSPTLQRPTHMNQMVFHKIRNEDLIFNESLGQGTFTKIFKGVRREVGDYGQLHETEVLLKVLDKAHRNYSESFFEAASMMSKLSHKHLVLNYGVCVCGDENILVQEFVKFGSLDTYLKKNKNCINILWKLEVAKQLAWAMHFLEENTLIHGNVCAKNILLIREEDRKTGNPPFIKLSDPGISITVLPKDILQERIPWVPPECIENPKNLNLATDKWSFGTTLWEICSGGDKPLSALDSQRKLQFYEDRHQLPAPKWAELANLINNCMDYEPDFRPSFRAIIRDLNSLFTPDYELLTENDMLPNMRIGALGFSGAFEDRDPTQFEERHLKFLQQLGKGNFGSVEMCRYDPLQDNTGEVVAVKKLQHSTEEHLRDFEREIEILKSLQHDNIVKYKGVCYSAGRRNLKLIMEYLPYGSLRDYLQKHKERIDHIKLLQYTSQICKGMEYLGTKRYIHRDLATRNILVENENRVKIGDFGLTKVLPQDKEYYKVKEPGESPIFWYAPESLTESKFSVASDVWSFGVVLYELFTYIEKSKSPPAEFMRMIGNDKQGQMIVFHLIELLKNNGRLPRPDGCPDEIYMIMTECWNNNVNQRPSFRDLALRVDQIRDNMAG

[8] = molecular target: ALK tyrosine kinase receptor (Homo sapiens, UniProt Q9UM73); type: functional;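 further: ALK tested as one member of a kinase panel screen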
Chain of ALK tyrosine kinase receptor (Q9UM73 whole entry): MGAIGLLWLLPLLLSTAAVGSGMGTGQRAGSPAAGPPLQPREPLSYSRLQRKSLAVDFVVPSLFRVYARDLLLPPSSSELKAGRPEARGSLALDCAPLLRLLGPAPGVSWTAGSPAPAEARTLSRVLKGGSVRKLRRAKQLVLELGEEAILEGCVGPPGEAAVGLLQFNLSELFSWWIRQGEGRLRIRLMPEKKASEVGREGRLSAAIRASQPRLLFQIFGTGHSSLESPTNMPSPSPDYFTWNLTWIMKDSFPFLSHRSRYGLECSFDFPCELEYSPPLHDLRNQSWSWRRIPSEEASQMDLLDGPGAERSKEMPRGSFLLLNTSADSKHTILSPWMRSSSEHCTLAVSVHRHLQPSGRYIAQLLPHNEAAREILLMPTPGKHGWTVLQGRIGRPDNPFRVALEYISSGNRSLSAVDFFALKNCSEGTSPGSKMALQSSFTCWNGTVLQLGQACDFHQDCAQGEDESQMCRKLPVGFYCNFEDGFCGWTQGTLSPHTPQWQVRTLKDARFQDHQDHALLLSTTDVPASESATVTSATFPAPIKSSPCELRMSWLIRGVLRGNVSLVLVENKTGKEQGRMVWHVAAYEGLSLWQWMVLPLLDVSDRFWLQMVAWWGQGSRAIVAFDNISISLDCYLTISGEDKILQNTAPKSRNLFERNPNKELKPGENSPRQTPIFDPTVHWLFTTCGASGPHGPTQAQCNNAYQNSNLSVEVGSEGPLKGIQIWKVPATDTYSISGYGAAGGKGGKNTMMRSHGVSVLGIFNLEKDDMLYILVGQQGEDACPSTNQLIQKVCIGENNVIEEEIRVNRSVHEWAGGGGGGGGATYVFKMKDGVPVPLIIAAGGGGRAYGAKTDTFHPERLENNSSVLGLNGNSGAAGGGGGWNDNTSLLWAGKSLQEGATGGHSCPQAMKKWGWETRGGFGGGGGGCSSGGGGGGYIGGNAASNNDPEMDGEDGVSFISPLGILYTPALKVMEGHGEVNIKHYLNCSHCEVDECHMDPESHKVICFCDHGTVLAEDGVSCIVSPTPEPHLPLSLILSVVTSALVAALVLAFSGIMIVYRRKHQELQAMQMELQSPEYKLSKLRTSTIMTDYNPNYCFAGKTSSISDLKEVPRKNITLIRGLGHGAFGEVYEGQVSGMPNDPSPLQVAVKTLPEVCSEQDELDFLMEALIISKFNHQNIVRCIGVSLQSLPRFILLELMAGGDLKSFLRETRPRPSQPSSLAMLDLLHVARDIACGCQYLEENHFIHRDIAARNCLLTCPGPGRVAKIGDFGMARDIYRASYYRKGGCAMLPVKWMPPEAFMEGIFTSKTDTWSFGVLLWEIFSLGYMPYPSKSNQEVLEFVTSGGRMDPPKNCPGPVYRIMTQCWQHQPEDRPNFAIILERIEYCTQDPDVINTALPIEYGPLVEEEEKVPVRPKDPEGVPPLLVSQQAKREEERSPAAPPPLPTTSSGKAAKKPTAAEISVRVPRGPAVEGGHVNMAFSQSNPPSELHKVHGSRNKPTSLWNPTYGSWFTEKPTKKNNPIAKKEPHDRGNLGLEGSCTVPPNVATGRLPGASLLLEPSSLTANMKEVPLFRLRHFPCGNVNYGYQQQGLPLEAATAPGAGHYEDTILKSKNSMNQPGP

Aurora kinase A = molecular target: T4, Aurora kinase A (Homo sapiens, UniProt O14965); type: functional;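 further: value from the Navigating the Kinome kinase panel profiling, panel entry STK6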
T4 sequence (O14965 whole entry): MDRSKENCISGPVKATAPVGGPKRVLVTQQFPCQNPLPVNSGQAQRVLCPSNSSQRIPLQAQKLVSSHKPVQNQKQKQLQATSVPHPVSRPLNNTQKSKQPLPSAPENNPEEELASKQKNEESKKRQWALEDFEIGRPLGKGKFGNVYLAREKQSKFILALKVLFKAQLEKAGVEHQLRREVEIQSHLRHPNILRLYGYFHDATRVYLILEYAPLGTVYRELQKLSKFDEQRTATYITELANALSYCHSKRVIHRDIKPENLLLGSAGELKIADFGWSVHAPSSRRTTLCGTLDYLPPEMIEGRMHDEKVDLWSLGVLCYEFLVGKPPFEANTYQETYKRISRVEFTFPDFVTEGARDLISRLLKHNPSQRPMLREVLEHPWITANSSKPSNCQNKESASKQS

[9] = molecular target: Vascular endothelial growth factor receptor 2 (Homo sapiens, UniProt P35968); type: functional
Chain of Vascular endothelial growth factor receptor 2 (P35968 whole entry): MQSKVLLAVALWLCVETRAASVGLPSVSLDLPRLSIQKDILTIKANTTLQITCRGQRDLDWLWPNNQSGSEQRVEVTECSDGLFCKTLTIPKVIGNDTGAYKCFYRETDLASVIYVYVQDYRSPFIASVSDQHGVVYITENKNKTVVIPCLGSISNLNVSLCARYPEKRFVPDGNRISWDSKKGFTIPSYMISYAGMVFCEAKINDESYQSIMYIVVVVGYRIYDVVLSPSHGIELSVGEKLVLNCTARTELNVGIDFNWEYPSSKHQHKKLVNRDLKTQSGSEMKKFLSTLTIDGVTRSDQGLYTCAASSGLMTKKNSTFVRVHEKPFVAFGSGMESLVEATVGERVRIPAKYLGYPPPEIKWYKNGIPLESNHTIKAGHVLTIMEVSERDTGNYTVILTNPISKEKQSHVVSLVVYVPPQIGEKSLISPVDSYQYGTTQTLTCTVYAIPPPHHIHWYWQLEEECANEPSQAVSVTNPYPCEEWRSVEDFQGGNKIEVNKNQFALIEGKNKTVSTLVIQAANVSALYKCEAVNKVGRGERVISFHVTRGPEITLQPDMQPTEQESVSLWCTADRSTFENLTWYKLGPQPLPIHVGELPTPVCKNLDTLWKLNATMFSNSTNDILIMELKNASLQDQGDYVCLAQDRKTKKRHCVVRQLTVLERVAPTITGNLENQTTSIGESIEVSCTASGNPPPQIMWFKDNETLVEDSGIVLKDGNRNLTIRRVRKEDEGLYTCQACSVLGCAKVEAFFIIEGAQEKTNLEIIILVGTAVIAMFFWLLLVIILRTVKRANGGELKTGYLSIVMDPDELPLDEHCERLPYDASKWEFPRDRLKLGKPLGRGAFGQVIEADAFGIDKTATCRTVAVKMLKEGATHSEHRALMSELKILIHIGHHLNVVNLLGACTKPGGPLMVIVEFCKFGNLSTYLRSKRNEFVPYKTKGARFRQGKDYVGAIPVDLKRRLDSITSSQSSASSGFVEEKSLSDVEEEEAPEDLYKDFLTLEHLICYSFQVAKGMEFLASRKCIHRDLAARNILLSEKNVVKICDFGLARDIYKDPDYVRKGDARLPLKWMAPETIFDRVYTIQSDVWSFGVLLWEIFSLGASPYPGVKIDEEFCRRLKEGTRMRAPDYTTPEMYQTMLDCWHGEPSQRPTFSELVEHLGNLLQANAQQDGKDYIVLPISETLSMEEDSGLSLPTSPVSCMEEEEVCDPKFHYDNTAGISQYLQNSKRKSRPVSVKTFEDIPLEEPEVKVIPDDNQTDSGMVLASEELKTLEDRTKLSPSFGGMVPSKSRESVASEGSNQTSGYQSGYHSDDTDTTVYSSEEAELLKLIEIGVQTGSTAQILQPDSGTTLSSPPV

[10] = molecular target: cAMP-dependent protein kinase catalytic subunit alpha (Homo sapiens, UniProt P17612); type: functional
[11] = molecular target: Tyrosine-protein kinase receptor TYRO3 (Homo sapiens, UniProt Q06418); type: functional;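 further: TYRO3 value obtained as one member of a kinome-wide profiling panel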
[12] = molecular target: Fibroblast growth factor receptor 1 (Homo sapiens, UniProt P11362); type: functional

| Structure (SMILES) | EC50 (Streptokinase A) | IC50 [1] | IC50 (Caspase-3) | EC50 [2] | CC50 [3] | Ki [4] | Ki [5] | Ki [6] | Ki [7] | Ki [8] | Ki (Aurora kinase A) | Ki [9] | Ki [10] | Ki [11] | Ki [12] |
| --- | --- | --- | --- | --- | --- | --- | --- | --- | --- | --- | --- | --- | --- | --- | --- |
| Cc1cc(C)c[n+](C2=C([N-]S(=O)(=O)c3cccs3)C(=O)c3ccccc3C2=O)c1 | > 150 µM (not active) | 15.1 µM (active) | 81.9 µM (active) | 941 nM (active) |  |  |  |  |  |  |  |  |  |  |  |
| CCCCCCCCCCC[N+](C)(C)CC/C=C1/c2ccccc2Sc2ccc(Cl)cc21 | 8.22 µM (active) |  |  | 1460 nM (active) | 25.4 µM (active) |  |  |  |  |  |  |  |  |  |  |
| CCn1c(-c2nonc2N)nc2cncc(C(=O)N3CCC(N)C3)c21 (centres undefined) |  |  |  |  |  | > 5.01 µM (inactive) | > 3.16 µM (inactive) | > 6.31 µM (inactive) | > 2.51 µM (inactive) | > 6.31 µM (inactive) | > 1.58 µM (inactive) | > 2 µM (inactive) | 3.16 nM (active) | > 3.16 µM (inactive) | > 3.98 µM (inactive) |
| Cc1[nH]nc2ccc(-c3cncc(OCC(N)Cc4c[nH]c5ccccc45)c3)cc12 (centres undefined) |  |  |  |  |  | 1.58 µM (active) | 0.158 µM (active) | > 0.794 µM (inactive) | > 1.58 µM (inactive) | > 1.26 µM (inactive) | > 1.58 µM (inactive) | 3.98 µM (active) | 5.01 nM (active) | > 2 µM (inactive) | 3.16 µM (active) |
| COC(=O)c1ccccc1NC1=C/C(=N\S(=O)(=O)c2cccs2)c2ccccc2C1=O |  | 1.86 µM (active) | 68.4 µM (active) |  |  |  |  |  |  |  |  |  |  |  |  |
